Results from ChEMBL document CHEMBL2375215, “Phenylpropiophenone derivatives as potential anticancer agents: synthesis, biological evaluation and quantitative structure-activity relationship study” (Eur J Med Chem, 2013).

How the values were obtained:
Aorta = experiment: Cytotoxicity against rat aorta at < 10 uM in presence of potassium channel and calcium channel blocker; assay type: tissue-based
[1] = Selectivity index, ratio of IC50 for PHA-stimulated human PBMC to IC50 for human LS174 cells
[2] = Selectivity index, ratio of IC50 for human PBMC to IC50 for human LS174 cells
PC-3 [3] = experiment: Selectivity index, ratio of IC50 for human PBMC to IC50 for human PC3 cells
PC-3 [4] = experiment: Selectivity index, ratio of IC50 for PHA-stimulated human PBMC to IC50 for human PC3 cells
MCF7 [5] = experiment: Selectivity index, ratio of IC50 for PHA-stimulated human PBMC to IC50 for human MCF7 cells
MCF7 [6] = experiment: Selectivity index, ratio of IC50 for human PBMC to IC50 for human MCF7 cells
K562 [7] = experiment: Selectivity index, ratio of IC50 for PHA-stimulated human PBMC to IC50 for human K562 cells
K562 [8] = experiment: Selectivity index, ratio of IC50 for human PBMC to IC50 for human K562 cells
[9] = Selectivity index, ratio of IC50 for PHA-stimulated human PBMC to IC50 for human Fem-X cells; assay type: functional
[10] = Selectivity index, ratio of IC50 for human PBMC to IC50 for human Fem-X cells
HeLa [11] = experiment: Selectivity index, ratio of IC50 for PHA-stimulated human PBMC to IC50 for human HeLa cells
HeLa [12] = experiment: Selectivity index, ratio of IC50 for human PBMC to IC50 for human HeLa cells
PBMC [13] = experiment: Cytotoxicity against human PBMC assessed as decrease in cell survival after 72 hrs by MTT assay; assay type: cell-based
PBMC [14] = experiment: Cytotoxicity against PHA-stimulated human PBMC assessed as decrease in cell survival after 72 hrs by MTT assay; assay type: cell-based
[15] = (§1) Cytotoxicity against human LS174 cells assessed as decrease in cell survival after 72 hrs by MTT assay; assay type: functional, cell-based; conditions: LS174, 72 h
LS174 = experiment: as §1; assay type: functional, cell-based
PC-3 [16] = experiment: Cytotoxicity against human PC3 cells assessed as decrease in cell survival after 72 hrs by MTT assay; assay type: functional, cell-based; conditions: for IC50: PC-3, 72 h
MCF7 [17] = experiment: Cytotoxicity against human MCF7 cells assessed as decrease in cell survival after 72 hrs by MTT assay; assay type: functional, cell-based; conditions: for IC50: MCF7, 72 h
K562 [18] = experiment: Cytotoxicity against human K562 cells assessed as decrease in cell survival after 72 hrs by MTT assay; assay type: functional, cell-based; conditions: for IC50: K562, 72 h
[19] = (§2) Cytotoxicity against human Fem-X cells assessed as decrease in cell survival after 72 hrs by MTT assay; assay type: functional, cell-based
Fem-X = experiment: as §2; assay type: functional, cell-based
HeLa [20] = experiment: Cytotoxicity against human HeLa cells assessed as decrease in cell survival after 72 hrs by MTT assay; assay type: functional, cell-based

| SMILES | Ratio IC50 [1] | Ratio IC50 [2] | Ratio IC50 (PC-3 [3]) | Ratio IC50 (PC-3 [4]) | Ratio IC50 (MCF7 [5]) | Ratio IC50 (MCF7 [6]) | Ratio IC50 (K562 [7]) | Ratio IC50 (K562 [8]) | Ratio IC50 [9] | Ratio IC50 [10] | Ratio IC50 (HeLa [11]) | Ratio IC50 (HeLa [12]) | IC50 (PBMC [13]) | IC50 (PBMC [14]) | IC50 ([15]; read-out: IC50) | IC50 ([15]; read-out: pIC50 (converted)) | Activity (LS174) | Activity (PC-3 [16]) | IC50 (PC-3 [16]; read-out: IC50) | IC50 (PC-3 [16]; read-out: pIC50 (converted)) | further results |
| --- | --- | --- | --- | --- | --- | --- | --- | --- | --- | --- | --- | --- | --- | --- | --- | --- | --- | --- | --- | --- | --- |
| CCCNCC(O)COc1ccccc1C(=O)CCc1ccccc1Cl.Cl (racemic) | 4.72 | 5.31 | 4.72 | 4.2 | 2.62 | 2.95 | 8.82 | 9.91 | 10.8 | 12.14 | 17.63 | 19.83 | 59.5 µM | 52.9 µM | 11.2 µM | 11.2 µM | Dose-dependent effect | Dose-dependent effect | 12.6 µM | 12.6 µM | Activity (Aorta): Not Active; Activity (MCF7 [17]): Dose-dependent effect; IC50 (MCF7 [17]; read-out: IC50): 20.2 µM; IC50 (MCF7 [17]; read-out: pIC50 (converted)): 20.2 µM; Activity (K562 [18]): Dose-dependent effect; IC50 (K562 [18]; read-out: IC50): 6 µM; IC50 (K562 [18]; read-out: pIC50 (converted)): 6 µM; IC50 ([19]; read-out: IC50): 4.9 µM; IC50 ([19]; read-out: pIC50 (converted)): 4.9 µM; Activity (Fem-X): Dose-dependent effect; Activity (HeLa [20]): Dose-dependent effect; IC50 (HeLa [20]; read-out: IC50): 3 µM; IC50 (HeLa [20]; read-out: pIC50 (converted)): 3 µM |
| CCCNCC(O)COc1ccccc1C(=O)CCc1ccccc1F.Cl (racemic) | 0.67 | 0.66 | 1.02 | 1.04 | 2.6 | 2.57 | 1.28 | 1.26 | 1.26 | 1.24 | 2.93 | 2.89 | 47.5 µM | 48.1 µM | 72.2 µM | 72.2 µM | Dose-dependent effect | Dose-dependent effect | 46.4 µM | 46.4 µM | Activity (MCF7 [17]): Dose-dependent effect; IC50 (MCF7 [17]; read-out: IC50): 18.5 µM; IC50 (MCF7 [17]; read-out: pIC50 (converted)): 18.5 µM; Activity (K562 [18]): Dose-dependent effect; IC50 (K562 [18]; read-out: IC50): 37.6 µM; IC50 (K562 [18]; read-out: pIC50 (converted)): 37.6 µM; IC50 ([19]; read-out: IC50): 38.2 µM; IC50 ([19]; read-out: pIC50 (converted)): 38.2 µM; Activity (Fem-X): Dose-dependent effect; Activity (HeLa [20]): Dose-dependent effect; IC50 (HeLa [20]; read-out: IC50): 16.4 µM; IC50 (HeLa [20]; read-out: pIC50 (converted)): 16.4 µM |
